Experiments:
Assay type in all cases: cell-based
[1] = test system: Ruminococcus obeum ATCC 29714 "ROB.74"; experiment: Sugar-supported growth of commensal bacteria, ROB.74; settings: 0.5% w/v sugar, 37° C., 18-24 hours, anaerobic; OD600 divided by OD600 with 0.5% w/v dextrose
Description: (§1) An in vitro assay was performed to assess the ability of various bacterial strains, including commensals of the gastrointestinal tract, to utilize different sugars as growth substrates. This assay was designed to assess the ability of selected natural monosaccharides, disaccharides and synthetic sugars to promote the growth of microbiota associated with a healthy state. Bacterial strains were handled at all steps in an anaerobic chamber (AS-580, Anaerobe Systems) featuring a palladium catalyst. The chamber was initially made anaerobic by purging with an anaerobic gas mixture of 5% hydrogen, 5% carbon dioxide and 90% nitrogen and subsequently maintained in an anaerobic state using this same anaerobic gas mixture. Anaerobicity of the chamber was confirmed daily using Oxoid anaerobic indicator strips that change color in the presence of oxygen. All culture media, assay plates, other reagents and plastic consumables were pre-reduced in the anaerobic chamber for 24-48 hours prior to contact with bacteria. Sugars were prepared at 5% w/v in water, filter-sterilized and added to Costar 3370 assay plates for a final concentration of 0.5% w/v in the assay, with each microbiome regulator assayed in two non-adjacent wells and dextrose and water supplied as positive and negative controls.
(§2) Bacterial isolates were obtained from the American Type Culture Collection (ATCC) and Leibniz Institute DSMZ-German Institute of Microorganisms and Cell Cultures (DSMZ). Cultures of the Bacteroidetes Bacteroides caccae ATCC 43185 “BCA.26”, Bacteroides thetaiotaomicron ATCC 29741 “BTH.8”, Bacteroides cellulosilyticus DSM 14838 “BCE.71”, Parabacteroides distasonis ATCC 8503 “PDI.6” and Prevotella copri DSM 18205 “PCO.72”; the Clostridiales Clostridium scindens ATCC 35704 “CSC.32”, Dorea formicigenerans ATCC 27755 “DFO.36” and Ruminococcus obeum ATCC 29714 “ROB.74”; and the Bifidobacteria Bifidobacterium longum ATCC 15707 “BLO.16” and Bifidobacterium longum DSM 20088 “BLO.83”, were grown anaerobically in Chopped Meat Glucose broth (CMG, Anaerobe Systems), a pre-reduced enriched medium including lean ground beef, enzymatic digest of casein, yeast extract, potassium phosphate, dextrose, cysteine, hemin and Vitamin K1, for 18-48 hours at 37° C. Inocula were prepared by determining the optical density of each culture at […] (OD600) in a Costar 3370 polystyrene 96-well flat-bottom assay plate using a Biotek Synergy 2 plate reader with Gen5 2.0 All-In-One Microplate Reader Software according to manufacturer's protocol, and diluting the cells to OD600 0.01 final in defined and semi-defined media that were prepared without sugars. D. formicigenerans, P. distasonis and B. longum isolates were tested in 900 mg/L sodium chloride, 26 mg/L calcium chloride dihydrate, 20 mg/L magnesium chloride hexahydrate, 10 mg/L manganese chloride tetrahydrate, 40 mg/L ammonium sulfate, 4 mg/L iron sulfate heptahydrate, 1 mg/L cobalt chloride hexahydrate, 300 mg/L potassium phosphate dibasic, 1.5 g/L sodium phosphate dibasic, 5 g/L sodium bicarbonate, 0.125 mg/L biotin, 1 mg/L pyridoxine, […], 75 mg/L histidine, 75 mg/L glycine, 75 mg/L tryptophan, 150 mg/L arginine, 150 mg/L methionine, 150 mg/L threonine, 225 mg/L valine, 225 mg/L isoleucine, 300 mg/L leucine, 400 mg/L cysteine, and 450 mg/L proline (Theriot C M et al. Nat Commun. 2014; 5:3114), supplemented with 0-3.5% (v/v) CMG. B. thetaiotaomicron, B. caccae and B. cellulosyliticus were tested in 100 mM potassium phosphate buffer (pH 7.2), 15 mM sodium chloride, 8.5 mM ammonium sulfate, 4 mM L-cysteine, 1.9 μM hematin, 200 μM L-histidine, 100 μM magnesium chloride, 1.4 μM iron sulfate heptahydrate, 50 μM calcium chloride, 1 μg/mL vitamin K3 and 5 ng/mL vitamin B12 (Martens E C et al. Cell Host & Microbe 2008; 4, 447-457). […]

[2] = test system: Bacteroides thetaiotaomicron ATCC 29741 "BTH.8"; experiment: Sugar-supported growth of commensal bacteria, BTH.8; settings: 0.5% w/v sugar, 37° C., 18-24 hours, anaerobic; OD600 divided by OD600 with 0.5% w/v dextrose
Description: as §1, §2

[3] = test system: Dorea formicigenerans ATCC 27755 "DFO.36"; experiment: Sugar-supported growth of commensal bacteria, DFO.36; settings: 0.5% w/v sugar, 37° C., 18-24 hours, anaerobic; OD600 divided by OD600 with 0.5% w/v dextrose
Description: as §1, §2

[4] = test system: Prevotella copri DSM 18205 "PCO.72"; experiment: Sugar-supported growth of commensal bacteria, PCO.72; settings: 0.5% w/v sugar, 37° C., 18-24 hours, anaerobic; OD600 divided by OD600 with 0.5% w/v dextrose
Description: as §1, §2

[5] = test system: Bacteroides cellulosilyticus DSM 14838 "BCE.71"; experiment: Sugar-supported growth of commensal bacteria, BCE.71; settings: 0.5% w/v sugar, 37° C., 18-24 hours, anaerobic; OD600 divided by OD600 with 0.5% w/v dextrose
Description: as §1, §2

[6] = test system: Parabacteroides distasonis ATCC 8503 "PDI.6"; experiment: Sugar-supported growth of commensal bacteria, PDI.6; settings: 0.5% w/v sugar, 37° C., 18-24 hours, anaerobic; OD600 divided by OD600 with 0.5% w/v dextrose
Description: as §1, §2

panel of 10 commensals = experiment: Sugar-supported growth, whole panel of 10 commensals; settings: 0.5% w/v sugar, summary in words
Description: as §1, §2

[7] = test system: Bacteroides caccae ATCC 43185 "BCA.26"; experiment: Sugar-supported growth of commensal bacteria, BCA.26; settings: 0.5% w/v sugar, 37° C., 18-24 hours, anaerobic; OD600 divided by OD600 with 0.5% w/v dextrose
Description: as §1, §2

[8] = test system: Clostridium scindens ATCC 35704 "CSC.32"; experiment: Sugar-supported growth of commensal bacteria, CSC.32; settings: 0.5% w/v sugar, 37° C., 18-24 hours, anaerobic; OD600 divided by OD600 with 0.5% w/v dextrose
Description: as §1, §2

[9] = test system: Bifidobacterium longum ATCC 15707 "BLO.16"; experiment: Sugar-supported growth of commensal bacteria, BLO.16; settings: 0.5% w/v sugar, 37° C., 18-24 hours, anaerobic; OD600 divided by OD600 with 0.5% w/v dextrose
Description: as §1, §2

| Structure (SMILES) | Average Normalized Growth (NGV), ROB.74 [1] | Average Normalized Growth (NGV), BTH.8 [2] | Average Normalized Growth (NGV), DFO.36 [3] | Average Normalized Growth (NGV), PCO.72 [4] | Average Normalized Growth (NGV), BCE.71 [5] | Average Normalized Growth (NGV), PDI.6 [6] | taxa or strains of the commensal panel whose growth was supported (panel of 10 commensals) | Average Normalized Growth (NGV), BCA.26 [7] | Average Normalized Growth (NGV), CSC.32 [8] | Average Normalized Growth (NGV), BLO.16 [9] |
| --- | --- | --- | --- | --- | --- | --- | --- | --- | --- | --- |
| O=C[C@@H](O)[C@H](O)[C@H](O)CO [D (−) arabinose] | ++ (0.6-1) | ++ (0.6-1) | − (<0.2) | − (<0.2) | + (0.2-0.6) | − (<0.2) | supported some commensals from the taxa Bacteroidetes and Firmicutes | ++ (0.6-1) | ++ (0.6-1) | − (<0.2) |
| OC[C@@H](O)[C@@H](O)[C@H](O)[C@@H](O)CO [D-sorbitol] |  |  |  |  |  |  | supported growth of CSC.32 alone among the panel of 10 commensals |  |  |  |
| OC[C@H]1O[C@@](CO)(O[C@H]2O[C@H](CO)[C@@H](O)[C@H](O)[C@H]2O)[C@@H](O)[C@@H]1O [sucrose] |  |  |  |  |  |  | supported some commensals from the taxa Bacteroidetes, Firmicutes, including Lachnospiraceae, and Bifidobacteria |  |  |  |
| OC[C@@H](O)[C@@H](O)[C@H](O)[C@H](O)CO [D-mannitol] |  | − (<0.2) |  | − (<0.2) | − (<0.2) | − (<0.2) | supported growth of CSC.32 alone among the panel of 10 commensals | − (<0.2) | + (0.2-0.6) | − (<0.2) |
| OC[C@H]1O[C@H](O[C@H]2[C@H](O)[C@@H](O)[C@H](O)O[C@@H]2CO)[C@H](O)[C@@H](O)[C@@H]1O [D (+) maltose] |  | +++ (>1) | +++ (>1) | +++ (>1) | ++ (0.6-1) | ++ (0.6-1) | supported some commensals from the taxa Bacteroidetes, Firmicutes, including Lachnospiraceae, and Bifidobacteria | + (0.2-0.6) | − (<0.2) | +++ (>1) |
| OC[C@H]1O[C@H](O[C@]2(CCl)O[C@H](CCl)[C@@H](O)[C@@H]2O)[C@H](O)[C@@H](O)[C@H]1Cl [sucralose] |  |  |  |  |  |  | supported growth of PCO.72 alone among the panel of 10 commensals |  |  |  |
| OC[C@H]1O[C@@H](O[C@@H]2[C@@H](CO)OC(O)(CO)[C@H]2O)[C@H](O)[C@@H](O)[C@H]1O (mixture of isomers) [lactulose] |  | − (<0.2) |  | ++ (0.6-1) | ++ (0.6-1) | + (0.2-0.6) | supported growth of some strains from the taxa Bacteroidetes and Bifidobacteria | ++ (0.6-1) | − (<0.2) |  |

— patent publication US20200009168A1, “MICROBIOME REGULATORS AND RELATED USES THEREOF” (KALEIDO BIOSCIENCES, INC., priority 2015, published 2020)
